Reference: publication PMC6973011, “Stafia‐1: a STAT5a‐Selective Inhibitor Developed via Docking‐Based Screening of in Silico O‐Phosphorylated Fragments” (Chemistry (Weinheim an Der Bergstrasse, Germany), 2019)
Numbering of substitutions follows the chain as printed.

Assays:
STAT5a = target: T1, STAT5a (Homo sapiens, UniProt P42229); assay: Fluorescence polarization competitive binding assay, STAT5a
T1 construct: made in house
T1 sequence (P42229 1-794): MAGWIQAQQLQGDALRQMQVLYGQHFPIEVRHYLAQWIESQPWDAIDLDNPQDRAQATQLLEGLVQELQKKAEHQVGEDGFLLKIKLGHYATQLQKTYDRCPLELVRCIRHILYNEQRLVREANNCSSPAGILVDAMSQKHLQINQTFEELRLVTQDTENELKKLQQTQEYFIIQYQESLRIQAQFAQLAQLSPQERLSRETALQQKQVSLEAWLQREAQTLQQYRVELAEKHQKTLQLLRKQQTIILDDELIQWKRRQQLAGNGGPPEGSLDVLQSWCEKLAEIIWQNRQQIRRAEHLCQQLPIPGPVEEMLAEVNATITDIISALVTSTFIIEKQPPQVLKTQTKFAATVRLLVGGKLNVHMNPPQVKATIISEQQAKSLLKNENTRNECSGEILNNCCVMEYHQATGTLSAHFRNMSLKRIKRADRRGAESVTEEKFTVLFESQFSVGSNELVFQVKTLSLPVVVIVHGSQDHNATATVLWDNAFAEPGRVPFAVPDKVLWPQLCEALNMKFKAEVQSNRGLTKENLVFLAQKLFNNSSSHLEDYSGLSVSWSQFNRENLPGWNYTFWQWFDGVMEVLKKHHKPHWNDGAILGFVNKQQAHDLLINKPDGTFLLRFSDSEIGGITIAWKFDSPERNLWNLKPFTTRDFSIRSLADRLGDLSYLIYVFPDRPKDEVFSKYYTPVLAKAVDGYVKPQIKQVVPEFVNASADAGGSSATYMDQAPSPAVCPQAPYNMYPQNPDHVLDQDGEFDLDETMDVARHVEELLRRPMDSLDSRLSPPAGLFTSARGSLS

[1] = target: T2, STAT5a Trp566Arg/Lys644Met (Homo sapiens, UniProt P42229, K644M/W566R); assay: Fluorescence polarization assay, double mutant STAT5a Trp566Arg/Lys644Met; assay type: binding; settings: FP assay
T2 construct: made in house
T2 sequence (P42229 1-794 W566R/K644M): T1 sequence (P42229 1-794) with W566R, K644M

[2] = target: T3, STAT5b Arg566Trp/Gln636Pro/Met639Asn/Phe640Leu/Met644Lys/Asn664Ser/Tyr679Phe (STAT5b‐7M) (Homo sapiens, UniProt P51692, F640L/M639N/M644K/N664S/Q636P/R566W/Y679F); assay: Fluorescence polarization assay, mutant STAT5b-7M; assay type: binding; settings: FP assay
T3 construct: made in house
T3 sequence (P51692 1-787 R566W/Q636P/M639N/F640L/M644K/N664S/Y679F): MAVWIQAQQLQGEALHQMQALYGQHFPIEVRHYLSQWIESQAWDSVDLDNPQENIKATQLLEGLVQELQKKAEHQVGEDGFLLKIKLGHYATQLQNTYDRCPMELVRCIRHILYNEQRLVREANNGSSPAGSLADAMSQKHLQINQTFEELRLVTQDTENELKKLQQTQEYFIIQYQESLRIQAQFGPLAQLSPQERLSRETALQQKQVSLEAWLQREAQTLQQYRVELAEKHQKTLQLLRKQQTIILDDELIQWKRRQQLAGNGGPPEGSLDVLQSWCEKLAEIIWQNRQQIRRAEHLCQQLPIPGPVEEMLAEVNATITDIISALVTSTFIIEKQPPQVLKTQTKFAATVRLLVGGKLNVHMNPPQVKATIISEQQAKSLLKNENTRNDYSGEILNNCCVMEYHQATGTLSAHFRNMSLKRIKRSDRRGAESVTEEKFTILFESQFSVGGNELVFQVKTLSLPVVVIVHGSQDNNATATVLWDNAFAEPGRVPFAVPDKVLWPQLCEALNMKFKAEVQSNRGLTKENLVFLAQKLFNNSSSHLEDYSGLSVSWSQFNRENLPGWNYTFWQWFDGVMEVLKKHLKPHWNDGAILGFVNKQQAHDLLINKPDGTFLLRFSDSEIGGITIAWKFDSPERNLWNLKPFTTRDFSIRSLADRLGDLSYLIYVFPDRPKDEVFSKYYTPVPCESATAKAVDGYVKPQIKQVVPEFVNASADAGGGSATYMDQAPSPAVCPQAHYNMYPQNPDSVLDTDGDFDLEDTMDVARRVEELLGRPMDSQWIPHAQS

COc1cc(-c2cc(OP(=O)(O)O)cc(-c3cc(OC)c(OC)c(OC)c3)c2)cc(OC)c1OC [Compound 20]
IC50 (STAT5a): 22.2 ± 3.6 µM | Ki (STAT5a): 10.9 ± 1.8 µM | selectivity for STAT5a over STAT5b (STAT5a; FP assays, STAT5a vs STAT5b): at least 9 fold | inhibition at 200 µM [1]: 44 ± 4% | IC50 [2]: 42.6 ± 8.8 µM | Ki [2]: 21.1 ± 4.4 µM
